Results taken from patent US8637310B2, “Use of a rock inhibitor to sustain primary human keratinocytes in a proliferative state” (The United States of America, as represented by the …, priority 2008, dated 2014).

Legend:
[1] = test system: hTERT mRNA; assay: Real time QRT-PCR of hTERT mRNA; assay type: cell-based, human
Procedure: Total cellular RNA was isolated with TRIZol™ reagent (Invitrogen, Carlsbad, Calif.) and treated with DNA-free kit (Ambion, Austin, Tex.). First-strand cDNA was synthesized from 8 μg of total cellular RNA using the Superscript III First-Strand Synthesis System (Invitrogen, Carlsbad, Calif.). RNase H-treated cDNA from 20 ng RNA was amplified by quantitative real time PCR using the Taqman Gene Expression Assay for hTERT (Assay ID: Hs00972646_m1, Applied Biosystems) spanning exons 14 and 15 and human RPLP0 (large ribosomal protein) endogenous control, VIC/MGB Probe, primer limited (Applied Biosystems). All samples were run in triplicate using the ABI 7900HT system and the amount of product was calculated with reference to standard curves generated by 4-fold serial dilutions of a mixed set of cDNAs with high telomerase expression. Values were adjusted relative to the level of RPO transcripts.

[2] = test system: p53; assay: Immunodetection of p53 and p21 during culture; assay type: cell-based, human; details: keratinocytes cultured with Y-27632
Procedure: Proteins were extracted in 2% sodium dodecyl sulfate (SDS), 50 mM Tris-HCl (pH 6.8), 10% glycerol supplemented with inhibitors Complete and PhosphoSTOP (Roche, Indianapolis, Ind.). Protein samples were resolved on NuPage gels, electrotransferred to Immobilon-P membrane (Millipore, Billerica, Mass.), and probed with the relevant antibodies before detection by chemiluminescence. Monoclonal antibody against p53 (DO-1) was obtained from Santa Cruz Biotechnology (Santa Cruz, Calif.). Monoclonal antibody against α-tubulin (B-5-1-2) was obtained from Sigma-Aldrich. Polyclonal antibodies against Myc (N-262), p21 (C-19), and p16 (C-20) were obtained from Santa Cruz Biotechnology.

[3] = test system: HPV6; assay: HPV DNA replication assay (Southern blot) in transfected primary keratinocytes, HPV6; assay type: cell-based, human papillomavirus; details: 10 μM Y-27632, FIG. 6
Procedure: (§1) Cloned viral genomes were cleaved with restriction enzymes to separate viral and vector sequences. The genomes were religated at a concentration of 5 μg/ml to favor intramolecular circularization. Prior to electroporation, J2 feeder cells were removed from the keratinocytes by versene treatment and the HFKs were collected by trypsinization. HFKs (1×10^6) were electroporated with 2 μg of re-circularized viral genomic DNA using the Amaxa Nucleofector II electroporator and the Human Keratinocyte Nucleofector Kit. The Amaxa program optimized for cell survival was used according to the manufacturer's specifications. Cells were removed from the cuvettes immediately following electroporation, and seeded onto 10 cm plates containing irradiated feeder cells and F-medium, in the presence or absence of 10 μM Y-27632, as indicated. At various times post-transfection, low molecular weight DNA was isolated by a modified Hirt extraction procedure (Ustav et al., EMBO J. 10:449-457, 1991). For Southern blot analysis, the isolated DNA was linearized with EcoRI or BamHI, depending on cloning site for each viral genome, and DpnI, to digest any unreplicated input DNA. DNA fragments were separated by agarose gel electrophoresis followed by Southern blot hybridization. […]

[4] = test system: human foreskin keratinocytes (HFK); assay: Long-term culture / immortalization of primary human foreskin keratinocytes on irradiated J2 feeder cells; assay type: cell-based
Procedure: Primary human foreskin keratinocytes (HFKs) were isolated and pooled from neonatal human foreskins from seven donors and grown in F medium (3: 1(v/v) F-12 Nutrient Mixture: DMEM, 5% FBS, 0.4 μg/ml hydrocortisone, 5 μg/ml insulin, 8.4 ng/ml cholera toxin, 10 ng/ml EGF, and 24 μg/ml adenine) (Jeon et al., Proc. Natl. Acad. Sci. USA 92:1654-1658, 1995) in the presence of irradiated J2 feeder cells. HFKs were divided into 10 cm plates, containing F-media with or without the addition of 10 μM Y-27632 (Alexis Biochemicals, San Diego, Calif.).
Human foreskin keratinocytes (HFKs) were isolated from pools of at least seven neonatal foreskins and grown in 154 medium supplemented with Human
Keratinocyte Growth Supplement and Gentamicin/Amphotericin (Invitrogen, Carlsbad, Calif.) or in F medium [3:1 (v/v) F-12 (Ham)-DMEM, 5% FBS, 0.4 μg/ml hydrocortisone, 5 μg/ml insulin, 8.4 ng/ml cholera toxin, 10 ng/ml EGF, 24 μg/ml adenine, 100 U penicillin, 100 μg/ml streptomycin (Invitrogen, cat no. 15140-148)] in the presence of irradiated 3T3 J2 feeder cells (Jeon et al., J. Virol. 69: 2989-2997, 1995).
The HPV18 cell line was established by introducing the HPV18 genome into primary HFKs using the Amaxa human keratinocyte nucleofection system. Primary human cervical keratinocytes (HCKs), human vaginal keratinocytes (HVKs), the HPV18 cell lines and the HPV31 positive cell line (CIN-612 9E) were grown in the presence or absence of 10 μM Y-27632 (Alexis Biochemicals), as indicated. Cells were subcultured by removing the fibroblast feeder cells with versene and keratinocytes were collected by trypsinization. At each pass, 2×10^5 cells were plated on a 10 cm plate of J2 feeder cells. Population doubling was calculated as: PD=3.32(log(# cells harvested/# cells seeded)). Immunodetection

[5] = test system: primary human foreskin keratinocytes; details: cited from earlier work
[6] = test system: CIN612 9E cells; assay: Growth of CIN1-derived cell line CIN612 9E; assay type: cell-based, human; details: 10 μM Y-27632; 44 days; FIG. 7
Procedure: The 9E and […] (20863 clone) cell lines were cultured in F-media on irradiated J2 feeder cells. For the Y-27632 experiments they were cultured in F-medium with or without 10 μM Y-27632 and continually passed for the times indicated.

[7] = test system: HPV31; assay: HPV31 genome copy number in CIN612 9E cells; assay type: cell-based, human papillomavirus; details: 10 μM Y-27632, FIG. 8
Procedure: The 9E and W12 (20863 clone) cell lines were cultured in F-media on irradiated J2 feeder cells. For the Y-27632 experiments they were cultured in F-medium with or without 10 μM Y-27632 and continually passed for the times indicated.
as §1, with “DNA.” for “DNA. DNA fragments were separated by agarose gel electrophoresis followed by Southern blot hybridization.”

[8] = 10 μM Y-27632, Example 2, FIG. 14

In the case of `CC(N)[C@H]1CC[C@H](C(=O)Nc2ccncc2)CC1` (single isomer, unassigned; (+)) [Y-27632, (+)-trans-N-(4-Pyridyl)-4-(1-aminoethyl)-cyclohexanecarboxamide], the “level of hTERT mRNA versus HPV18-immortalized keratinocytes” value ([1]; by passage 34 in Y-27632) is reported as “comparable to those in HPV18-immortalized keratinocytes”, the “level of hTERT mRNA” value ([1]; foreskin keratinocytes with passage in Y-27632, FIG. 11A) is reported as “increased with passage” and the p21 induction [2] is reported as “not induced”. The p53 protein levels [2] was “gradually increase”, the “HPV6 viral DNA levels, long-term assay” value ([3]; after three passes) was “the levels of viral DNA declined” and the “efficiency of HPV6 replication, long-term assay” value ([3]; up to three passes) was “greatly increased the efficiency of replication and robust levels of viral DNA were present after three passes”. For the same compound, the “continued division / growth rate beyond senescence of untreated cells (about 15 passages)” value ([4]; 10 μM Y-27632, Example 1) was “continued to divide without any decrease in growth rate”, the “number of times treated cells were passed” value ([4]; 10 μM Y-27632, Example 1) was “at least 82 times” and the “proliferation rate versus untreated cells” value ([4]; 10 μM Y-27632, Example 1) was “proliferated at a rate that exceeded the untreated cells almost immediately”. The “time in continuous culture” value ([4]; 10 μM Y-27632, Example 1) was “over 10 months”, the passages in culture [4, 8] was “up to 150 passages” and the period of culture [4, 8] was 500 days. The bypass of senescence ([4]; 10 μM Y-27632, FIG. 9) was “efficiently bypassed senescence with no observed decline in growth rate”, the cellular proliferation ([4]; 10 μM Y-27632, FIG. 9) was “dramatic increase in cellular proliferation” and the “population doubling (PD) to which cells were cultured, considered to be immortal” value ([4]; +Y-27632 (10 μM), HFK strain b) was “PD199”. The “growth after withdrawal of Y-27632” value ([4]; withdrawn at passage 48, after 196 days in culture) was “continued to grow unchecked with only a gradual slowing in the rate of population doubling”, the colony forming ability [5] was “increase the colony forming ability” and the growth rate [6] was “no differences in growth rate were observed”. For the same compound, the HPV31 copy number [7] was “remained constant”.
